The source of these data is patent US20260234129A1, “NOVEL IMIDAZOLE DERIVATIVE AND USE THEREOF” (PELEMED CO., LTD., priority 2023, published 2026).

The term GI50 denotes the concentration that inhibits growth by half.

The first assay deals with MV4-11 cells (FLT3-ITD-expressing AML cell line). In words: Cell proliferation inhibition, Alamar Blue. The following applies: 72 hours of compound treatment, read-out: Cellular (GI50) MV4-11. It is filed as cell-based, human. The method, then:
The cell proliferation inhibition experiment on acute myeloid leukemia (AML) cell lines was performed using FL3-ITD-expressing AML cell line MV4-11, BaF3-ITD-FLT3 F691L cell line, and BaF3-ITD-FLT3 D835Y cell line to test FLT3 inhibitory activity. All cell lines were human-derived cell lines, and the sources and culture conditions for each cell line are as follows.
Cell viability was assessed by a resazurin redox-based assay using the Alamar Blue Assay kit (Invitrogen, USA). Specifically, MV4-11, BaF3-ITD-FLT3-F691L, and BaF3-ITD-FLT3-D835Y cells were plated in 384-well plates at 8,000 cells in 45 μL of medium. As a negative control, dimethyl sulfoxide (DMSO) was added together with the compound. After three days (72 hours) of compound treatment, 5 μL of the Alamar Blue kit reagent was added to each well of the 384-well plates, followed by incubation at 37° C. for 2 hours in a humidified CO2 incubator. After incubation, fluorescence intensity (Flu) was measured at 544 nm and 590 nm using a SpectraMax iD3 Multi Mode Microplate Reader (Molecular Devices, ID3-STD).
(In general: Alamar Blue is a resazurin reagent that responds to reducing activity.)
Turning to `O=C(N[C@@H]1[C@@H]2CNC[C@@H]21)c1ccc2[nH]nc(-c3nc4ccc(N5CCOCC5)cc4[nH]3)c2c1` [Example 71, N-((1R,5S,6r)-3-azabicyclo[3.1.0]hexan-6-yl)-3-(6-morpholino-1H-benzo[d]imidazol-2-yl)-1H-indazole-5-carboxamide], the GI50 is 10 to 100 nM.

The same assay, now with this note: Homo sapiens, MV4-11, 72 hours of compound treatment, read-out: Cellular (GI50) MV4-11.
Regarding `COc1c(Cl)cc(Cl)cc1-c1cnc(-c2n[nH]c3ccc(C(=O)NCCCN)cc23)[nH]1` [Example 87, N-(3-aminopropyl)-3-(5-(3,5-dichloro-2-methoxyphenyl)-1H-imidazol-2-yl)-1H-indazole-5-carboxamide], the GI50 lay within 10 to 100 nM. Turning to `NCCCNC(=O)c1ccc2[nH]nc(-c3nc4ccc(Cl)cc4[nH]3)c2c1` [Example 27, N-(3-aminopropyl)-3-(6-chloro-1H-benzo[d]imidazol-2-yl)-1H-indazole-5-carboxamide], the GI50 is 10 to 100 nM. Same read-out and setting: in the case of `CN(C)CCNC(=O)c1ccc2[nH]nc(-c3nc4ccc(F)cc4[nH]3)c2c1` [Example 35, N-(2-(dimethylamino)ethyl)-3-(6-fluoro-1H-benzo[d]imidazol-2-yl)-1H-indazole-5-carboxamide] it was 10 to 100 nM. Still for that read-out and setting: the same measure for `COCc1cnc(-c2n[nH]c3ccc(C(=O)NCCCN)cc23)[nH]1` [Example 114, N-(3-aminopropyl)-3-(5-(methoxymethyl)-1H-imidazol-2-yl)-1H-indazole-5-carboxamide]: above 1000 nM; for `O=C(c1ccc2[nH]nc(-c3nc(-c4ccccc4)c[nH]3)c2c1)N1CCN(c2ccc(F)cc2)CC1` [Example 97, (4-(4-fluorophenyl)piperazin-1-yl)(3-(4-phenyl-1H-imidazol-2-yl)-1H-indazol-5-yl)methanone]: above 1000 nM; for `NCCCNC(=O)c1ccc2[nH]nc(-c3nc4ccc(F)cc4n3CCO)c2c1` [Example 109, N-(3-aminopropyl)-3-(6-fluoro-1-(2-hydroxyethyl)-1H-benzo[d]imidazol-2-yl)-1H-indazole-5-carboxamide]: above 1000 nM. `CN(C)CCn1c(-c2n[nH]c3ccc(C(=O)NCCCN)cc23)nc2ccc(F)cc21` [Example 107, N-(3-aminopropyl)-3-(1-(2-(dimethylamino)ethyl)-6-fluoro-1H-benzo[d]imidazol-2-yl)-1H-indazole-5-carboxamide]: the GI50 was above 1000 nM. Same read-out and setting: the same measure for `CN(C)CCCNC(=O)c1ccc2[nH]nc(-c3nc4ccc(F)cc4[nH]3)c2c1` [Example 36, N-(3-(dimethylamino)propyl)-3-(6-fluoro-1H-benzo[d]imidazol-2-yl)-1H-indazole-5-carboxamide]: 10 to 100 nM. In the case of `CN(C)CCCNC(=O)c1ccc2[nH]nc(-c3nc4ccc(C#N)cc4[nH]3)c2c1` [Example 10, 3-(6-cyano-1H-benzo[d]imidazol-2-yl)-N-(3-(dimethylamino)propyl)-1H-indazole-5-carboxamide], the GI50 is 100 to 1000 nM. Still for that read-out and setting: in the case of `O=C(c1ccc2[nH]nc(-c3nc4ccccc4[nH]3)c2c1)N1CCN(c2ccc(F)cc2)CC1` [Example 3, (3-(1H-benzo[d]imidazol-2-yl)-1H-indazol-5-yl)(4-(4-fluorophenyl)piperazin-1-yl)methanone] it was above 1000 nM; in that of `O=C(c1ccc2[nH]nc(-c3nc4ccc(N5CCOCC5)cc4[nH]3)c2c1)N1C[C@H]2C[C@@H]1CN2` [Example 65, ((1R,4R)-2,5-diazabicyclo[2.2.1]heptan-2-yl)(3-(6-morpholino-1H-benzo[d]imidazol-2-yl)-1H-indazol-5-yl)methanone], 10 to 100 nM. Same read-out and setting: in the case of `C[C@@H]1CN(c2ccc3nc(-c4n[nH]c5ccc(C(=O)NCCCN)cc45)[nH]c3c2)C[C@H](C)N1` [Example 19, N-(3-aminopropyl)-3-(6-((3S,5R)-3,5-dimethylpiperazin-1-yl)-1H-benzo[d]imidazol-2-yl)-1H-indazole-5-carboxamide] it was 100 to 1000 nM. The same measure, in the same setting: in the case of `O=C(c1ccc2[nH]nc(-c3nc4ccc(N5CCOCC5)cc4[nH]3)c2c1)N1C[C@@H]2C[C@H]1CN2` [Example 66, ((1S,4S)-2,5-diazabicyclo[2.2.1]heptan-2-yl)(3-(6-morpholino-1H-benzo[d]imidazol-2-yl)-1H-indazol-5-yl)methanone] it was 10 to 100 nM; in that of `NCCCNC(=O)c1ccc2[nH]nc(-c3ncc(-c4cccc(F)c4)[nH]3)c2c1` [Example 82, N-(3-aminopropyl)-3-(5-(3-fluorophenyl)-1H-imidazol-2-yl)-1H-indazole-5-carboxamide], 10 to 100 nM. With `CC(=O)N1CC2(C1)CN(C(=O)c1ccc3[nH]nc(-c4nc5ccc(N6CCOCC6)cc5[nH]4)c3c1)C2` [Example 60, 1-(6-(3-(6-morpholino-1H-benzo[d]imidazol-2-yl)-1H-indazole-5-carbonyl)-2,6-diazaspiro[3.3]heptan-2-yl)ethan-1-one], the 50% growth inhibitory concentration (GI50) was above 1000 nM. Same read-out and setting: the same measure for `NCCCNC(=O)c1ccc2[nH]nc(-c3nc4ccc(Br)cc4[nH]3)c2c1` [Example 28, N-(3-aminopropyl)-3-(6-bromo-1H-benzo[d]imidazol-2-yl)-1H-indazole-5-carboxamide]: 10 to 100 nM; for `CN1CCN(C(=O)c2ccc3[nH]nc(-c4nc5ccccc5[nH]4)c3c2)CC1` [Example 2, (3-(1H-benzo[d]imidazol-2-yl)-1H-indazol-5-yl)(4-methylpiperazin-1-yl)methanone]: 100 to 1000 nM; for `O=C(NC1CCNCC1)c1ccc2[nH]nc(-c3nc4ccc(F)cc4[nH]3)c2c1` [Example 40, 3-(6-fluoro-1H-benzo[d]imidazol-2-yl)-N-(piperidin-4-yl)-1H-indazole-5-carboxamide]: 10 to 100 nM.

For `CN(C)CCCNC(=O)c1ccc2[nH]nc(-c3nc4cc(F)c(F)cc4[nH]3)c2c1` [Example 9, 3-(5,6-difluoro-1H-benzo[d]imidazol-2-yl)-N-(3-(dimethylamino)propyl)-1H-indazole-5-carboxamide], the concentration for 50% growth inhibition (GI50) lay in the range of 10 to 100 nM. `NCCCNC(=O)c1ccc2[nH]nc(-c3nc(C(N)=O)c(-c4ccccc4)[nH]3)c2c1` [Example 113, N-(3-aminopropyl)-3-(4-carbamoyl-5-phenyl-1H-imidazol-2-yl)-1H-indazole-5-carboxamide]: the 50% growth inhibitory concentration (GI50) was 100 to 1000 nM. Still for that read-out and setting: the same measure for `NC1CCN(CCNC(=O)c2ccc3[nH]nc(-c4nc(-c5ccccc5)c[nH]4)c3c2)CC1` [Example 103, N-(2-(4-aminopiperidin-1-yl)ethyl)-3-(4-phenyl-1H-imidazol-2-yl)-1H-indazole-5-carboxamide]: above 1000 nM; for `NCCCNC(=O)c1ccc2[nH]nc(-c3ncc(-c4ccccc4F)[nH]3)c2c1` [Example 83, N-(3-aminopropyl)-3-(5-(2-fluorophenyl)-1H-imidazol-2-yl)-1H-indazole-5-carboxamide]: 10 to 100 nM; for `CN1CCN(C2CCN(C(=O)c3ccc4[nH]nc(-c5nc6ccc(F)cc6[nH]5)c4c3)CC2)CC1` [Example 34, (3-(6-fluoro-1H-benzo[d]imidazol-2-yl)-1H-indazol-5-yl)(4-(4-methylpiperazin-1-yl)piperidin-1-yl)methanone]: above 1000 nM. Still for that read-out and setting: the same measure for `NCCCNC(=O)c1ccc2[nH]nc(-c3ncc(-c4cccc(O)c4)[nH]3)c2c1` [Example 92, N-(3-aminopropyl)-3-(5-(3-hydroxyphenyl)-1H-imidazol-2-yl)-1H-indazole-5-carboxamide]: 100 to 1000 nM. On to `CC(C)n1c(-c2n[nH]c3ccc(C(=O)NCCCN)cc23)nc2ccc(F)cc21` [Example 105, N-(3-aminopropyl)-3-(6-fluoro-1-isopropyl-1H-benzo[d]imidazol-2-yl)-1H-indazole-5-carboxamide], for which the concentration for 50% growth inhibition (GI50) was above 1000 nM. Same read-out and setting: the same measure for `COCCn1c(-c2n[nH]c3ccc(C(=O)NCCCN)cc23)nc2ccc(F)cc21` [Example 106, N-(3-aminopropyl)-3-(6-fluoro-1-(2-methoxyethyl)-1H-benzo[d]imidazol-2-yl)-1H-indazole-5-carboxamide]: above 1000 nM; for `Nc1ccc(NC(=O)c2ccc3[nH]nc(-c4nc5ccc(N6CCOCC6)cc5[nH]4)c3c2)cc1` [Example 72, N-(4-aminophenyl)-3-(6-morpholino-1H-benzo[d]imidazol-2-yl)-1H-indazole-5-carboxamide]: 10 to 100 nM.
